Measured values: patent US20260008793A1, “IONIZABLE CATIONIC LIPIDS INCORPORATING SILICON” (ALDEXCHEM KFT., priority 2022, published 2026)

Legend:
[1] = Encapsulation efficiency, RiboGreen RNA assay (Method A); assay type: physicochemical; conditions: LNP formulated by Method A
How it was run: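 mRNA-LNPs (Method A formulation) diluted in TE buffer pH 7.4/7.5 and measured in duplicate with and without Triton lysis (37° C., 10 min). RiboGreen fluorescence read at ex 480/em 525. mRNA quantified against a standard curve.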

[2] = LNP size, PDI and zeta potential by Dynamic Light Scattering (Method A); assay type: physicochemical; conditions: LNP formulated by Method A; for Zeta potential (mV): 1xPBS pH 7.4; for PDI / Size (nm): DLS; for Size (nm): Luciferase-mRNA loaded
How it was run: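 Dynamic light scattering gave particle size, PDI and zeta potential of the LNPs. These were made by microfluidic mixing, 3:1 aqueous to ethanol, of mRNA in 10 mM citrate pH 4.0 with a lipid master mix carrying the ionizable lipid, then dialysed through 100 kDa MWCO tubing.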

CCCCCCCCCCSC(CCCC)C(=O)OCCCCCCN(CCCCO)CCCCCCOC(CCCCCCC)O[Si](C)(C)OCC(CCCCCC)CCCCCCCC (stereo not drawn) [Example 175, 15-heptyl-20-hexyl-7-(4-hydroxybutyl)-17,17-dimethyl-14,16,18-trioxa-7-aza-17-silaoctacosyl 2-(decylthio)hexanoate]
EE (%) [1]: 97% | Zeta potential (mV) [2]: −11.78 mV | PDI [2]: 0.068 | Size (nm) [2]: 161.2 nm

CCCCCCCCOC(CCCCCN(CCCCO)CCCCCCOC(=O)C(CCCCCCCC)SCCCCC)O[Si](C)(C)CCCCCCCC (stereo not drawn) [Example 177, 6-((6-((dimethyl(octyl)silyl)oxy)-6-(octyloxy)hexyl)(4-hydroxybutyl)amino)hexyl 2-(pentylthio)decanoate]
EE (%) [1]: 98% | Zeta potential (mV) [2]: −14.50 mV | PDI [2]: 0.100 | Size (nm) [2]: 166 nm

CCCCCCCCC(SCCCCC)C(=O)OCCCCCCN(CCCCO)CCCCCCOC(CCCCCCC)O[Si](C)(C)CCCCCCCC (stereo not drawn) [Example 178, 15-heptyl-7-(4-hydroxybutyl)-17,17-dimethyl-14,16-dioxa-7-aza-17-silapentacosyl 2-(pentylthio)decanoate]
EE (%) [1]: 96% | Zeta potential (mV) [2]: −13.00 mV | PDI [2]: 0.058 | Size (nm) [2]: 209.9 nm

CCCCCCCCOC(CCCCCN(CCCCO)CCCCCCOC(=O)C(CCCCCCCC)SCCCCC)O[Si](C)(C)OCCCCCCCC (stereo not drawn) [Example 179, 7-(4-hydroxybutyl)-15,15-dimethyl-13-(octyloxy)-14,16-dioxa-7-aza-15-silatetracosyl 2-(pentylthio)decanoate]
EE (%) [1]: 94% | Zeta potential (mV) [2]: −10.65 mV | PDI [2]: 0.038 | Size (nm) [2]: 189.1 nm

CCCCCCCCOC(CCCCCN(CCCCO)CCCCCCOC(=O)C(CCCCCCCC)SCCCCC)O[Si](C)(C)O[Si](C)(C)CCCCCCCC (stereo not drawn) [Example 181, 6-((4-hydroxybutyl)(6-(octyloxy)-6-((1,1,3,3-tetramethyl-3-octyldisiloxaneyl)oxy)hexyl)amino)hexyl 2-(pentylthio)decanoate]
EE (%) [1]: 97% | Zeta potential (mV) [2]: −14.73 mV | PDI [2]: 0.049 | Size (nm) [2]: 188.6 nm

CCCCCCCCC(SCCCCC)C(=O)OCCCCCCN(CCCCO)CCCCCCOC(CCCCCCC)O[Si](C)(C)O[Si](C)(C)CCCCCCCC (stereo not drawn) [Example 182, 15-heptyl-7-(4-hydroxybutyl)-17,17,19,19-tetramethyl-14,16,18-trioxa-7-aza-17,19-disilaheptacosyl 2-(pentylthio)decanoate]
EE (%) [1]: 96% | Zeta potential (mV) [2]: −12.56 mV | PDI [2]: 0.045 | Size (nm) [2]: 136.8 nm

CCCCCCCCOC(CCCCCN(CCCCO)CCCCCCOC(=O)C(CCCCCCCC)SCCCCC)O[Si](C)(C)O[Si](C)(C)OCCCCCCCC (stereo not drawn) [Example 183, 6-((4-hydroxybutyl)(6-(octyloxy)-6-((1,1,3,3-tetramethyl-3-(octyloxy)disiloxaneyl)oxy)hexyl)amino)hexyl 2-(pentylthio)decanoate]
EE (%) [1]: 97% | Zeta potential (mV) [2]: −10.92 mV | PDI [2]: 0.044 | Size (nm) [2]: 143.9 nm

CCCCCCCCO[Si](C)(C)O[Si](C)(C)OC(CCCCCCC)OCCCCCCN(CCCCO)CCCCCCOC(=O)C(CCCCCCCC)SCCCCC (stereo not drawn) [Example 184, 15-heptyl-7-(4-hydroxybutyl)-17,17,19,19-tetramethyl-14,16,18,20-tetraoxa-7-aza-17,19-disilaoctacosyl 2-(pentylthio)decanoate]
EE (%) [1]: 92% | Zeta potential (mV) [2]: −14.83 mV | PDI [2]: 0.146 | Size (nm) [2]: 237.5 nm

CCCCCCCCOC(CCCCCN(CCCCO)CCCCCCOC(=O)C(CCCCCCCC)SCCCCC)O[Si](C)(C)OCC(CCCCCC)CCCCCCCC (stereo not drawn) [Example 185, 18-hexyl-7-(4-hydroxybutyl)-15,15-dimethyl-13-(octyloxy)-14,16-dioxa-7-aza-15-silahexacosyl 2-(pentylthio)decanoate]
EE (%) [1]: 97% | Zeta potential (mV) [2]: −16.4 mV | PDI [2]: 0.04 | Size (nm) [2]: 213.6 nm

CCCCCCCCOC(CCCCCCC)O[Si](C)(C)CCCCCCN(CCCCO)CCCCCCOC(=O)C(CCCCCCCC)SCCCCC (stereo not drawn) [Example 187, 16-heptyl-7-(4-hydroxybutyl)-14,14-dimethyl-15,17-dioxa-7-aza-14-silapentacosyl 2-(pentylthio)decanoate]
EE (%) [1]: 92% | Zeta potential (mV) [2]: −14.47 mV | PDI [2]: 0.255 | Size (nm) [2]: 334.9 nm

CCCCCCCCOC(CCCCCN(CCO)CCCCCCCC(=O)OC(CCCCCCCC)CCCCCCCC)O[Si](C)(C)CCCCCCCC (stereo not drawn) [Example 189, heptadecan-9-yl 8-((6-((dimethyl(octyl)silyl)oxy)-6-(octyloxy)hexyl)(2-hydroxyethyl)amino)octanoate]
EE (%) [1]: 94% | Zeta potential (mV) [2]: −10.68 mV | PDI [2]: 0.066 | Size (nm) [2]: 170 nm

CCCCCCCCOC(CCCCCN(CCO)CCCCCCCC(=O)OC(CCCCCCCC)CCCCCCCC)O[Si](C)(C)OCCCCCCCC (stereo not drawn) [Example 190, heptadecan-9-yl 18-(2-hydroxyethyl)-10,10-dimethyl-12-(octyloxy)-9,11-dioxa-18-aza-10-silahexacosan-26-oate]
EE (%) [1]: 93% | Zeta potential (mV) [2]: −11.40 mV | PDI [2]: 0.075 | Size (nm) [2]: 208.2 nm

CCCCCCCCOC(CCCCCN(CCO)CCCCCCCC(=O)OC(CCCCCCCC)CCCCCCCC)O[Si](C)(C)O[Si](C)(C)CCCCCCCC (stereo not drawn) [Example 191, heptadecan-9-yl 8-((2-hydroxyethyl)(6-(octyloxy)-6-((1,1,3,3-tetramethyl-3-octyldisiloxaneyl)oxy)hexyl)amino)octanoate]
EE (%) [1]: 96% | Zeta potential (mV) [2]: −10.35 mV | PDI [2]: 0.05 | Size (nm) [2]: 159.4 nm

CCCCCCCCOC(CCCCCN(CCO)CCCCCCCC(=O)OC(CCCCCCCC)CCCCCCCC)O[Si](C)(C)O[Si](C)(C)OCCCCCCCC (stereo not drawn) [Example 192, heptadecan-9-yl 8-((2-hydroxyethyl)(6-(octyloxy)-6-((1,1,3,3-tetramethyl-3-(octyloxy)disiloxaneyl)oxy)hexyl)amino)octanoate]
EE (%) [1]: 97% | Zeta potential (mV) [2]: −12.28 mV | PDI [2]: 0.042 | Size (nm) [2]: 175.0 nm

CC/C=C\C/C=C\C/C=C\C/C=C\C/C=C\CCCCN(CCCCO)CCCCCC(OCCCCCCCC)O[Si](C)(C)CCCCCCCC (stereo not drawn) [Example 194, 4-((6-((dimethyl(octyl)silyl)oxy)-6-(octyloxy)hexyl)((5Z,8Z,11Z,14Z,17Z)-icosa-5,8,11,14,17-pentaen-1-yl)amino)butan-1-ol]
EE (%) [1]: 96% | Zeta potential (mV) [2]: −16.45 mV | PDI [2]: 0.085 | Size (nm) [2]: 153.5 nm

CC/C=C\C/C=C\C/C=C\C/C=C\C/C=C\CCCCN(CCCCO)CCCCCCOC(CCCCCCC)O[Si](C)(C)CCCCCCCC (stereo not drawn) [Example 195, 13-heptyl-5-((5Z,8Z,11Z,14Z,17Z)-icosa-5,8,11,14,17-pentaen-1-yl)-15,15-dimethyl-12,14-dioxa-5-aza-15-silatricosan-1-ol]
EE (%) [1]: 96% | Zeta potential (mV) [2]: −5.8 mV | PDI [2]: 0.04 | Size (nm) [2]: 155.2 nm

CC/C=C\C/C=C\C/C=C\C/C=C\C/C=C\CCCCN(CCCCO)CCCCCCOC(CCCCCCC)O[Si](C)(C)OCCCCCCCC (stereo not drawn) [Example 197, 13-heptyl-5-((5Z,8Z,11Z,14Z,17Z)-icosa-5,8,11,14,17-pentaen-1-yl)-15,15-dimethyl-12,14,16-trioxa-5-aza-15-silatetracosan-1-ol]
EE (%) [1]: 97% | Zeta potential (mV) [2]: −12.3 mV | PDI [2]: 0.135 | Size (nm) [2]: 170 nm

CC/C=C\C/C=C\C/C=C\C/C=C\C/C=C\CCCCN(CCCCO)CCCCCC(OCCCCCCCC)O[Si](C)(C)O[Si](C)(C)CCCCCCCC (stereo not drawn) [Example 198, 4-(((5Z,8Z,11Z,14Z,17Z)-icosa-5,8,11,14,17-pentaen-1-yl)(6-(octyloxy)-6-((1,1,3,3-tetramethyl-3-octyldisiloxaneyl)oxy)hexyl)amino)butan-1-ol]
EE (%) [1]: 98% | Zeta potential (mV) [2]: −13.07 mV | PDI [2]: 0.004 | Size (nm) [2]: 158 nm

CC/C=C\C/C=C\C/C=C\C/C=C\C/C=C\CCCCN(CCCCO)CCCCCCOC(CCCCCCC)O[Si](C)(C)O[Si](C)(C)CCCCCCCC (stereo not drawn) [Example 199, 13-heptyl-5-((5Z,8Z,11Z,14Z,17Z)-icosa-5,8,11,14,17-pentaen-1-yl)-15,15,17,17-tetramethyl-12,14,16-trioxa-5-aza-15,17-disilapentacosan-1-ol]
EE (%) [1]: 97% | Zeta potential (mV) [2]: −12.42 mV | PDI [2]: 0.08 | Size (nm) [2]: 164.3 nm

CC/C=C\C/C=C\C/C=C\C/C=C\C/C=C\CCCCN(CCCCO)CCCCCC(OCCCCCCCC)O[Si](C)(C)O[Si](C)(C)OCCCCCCCC (stereo not drawn) [Example 200, 4-(((5Z,8Z,11Z,14Z,17Z)-icosa-5,8,11,14,17-pentaen-1-yl)(6-(octyloxy)-6-((1,1,3,3-tetramethyl-3-(octyloxy)disiloxaneyl)oxy)hexyl)amino)butan-1-ol]
EE (%) [1]: 97% | Zeta potential (mV) [2]: −13.03 mV | PDI [2]: 0.089 | Size (nm) [2]: 155.1 nm

CC/C=C\C/C=C\C/C=C\C/C=C\C/C=C\CCCCN(CCCCO)CCCCCCOC(CCCCCCC)O[Si](C)(C)O[Si](C)(C)OCCCCCCCC (stereo not drawn) [Example 201, 13-heptyl-5-((5Z,8Z,11Z,14Z,17Z)-icosa-5,8,11,14,17-pentaen-1-yl)-15,15,17,17-tetramethyl-12,14,16,18-tetraoxa-5-aza-15,17-disilahexacosan-1-ol]
EE (%) [1]: 95% | Zeta potential (mV) [2]: −13.1 mV | PDI [2]: 0.055 | Size (nm) [2]: 176.2 nm
